Assay results reported in patent publication US8802664B2 (Bioproject, priority 2010, dated 2014).
Counter-ions that a name gives are not always drawn.

Tested on: not given
Assay: not given

Compound | melting point [°C]
COc1cccc(C(OC2CCN(C)CC2)c2nc3ccccc3s2)c1 (stereo not drawn) (as salt: hydrochloride) [Example 11, 2-[(3-methoxyphenyl)(1-methylpiperidin-4-yloxy)methyl]benzothiazole] | 182
COc1ccc(C(OC2CCN(C)CC2)c2nc3ccccc3s2)cc1 (stereo not drawn) (as salt: hydrochloride) [Example 14, 2-[(4-methoxyphenyl)(1-methylpiperidin-4-yloxy)methyl]benzothiazole] | 72
CN1CCC(OC(c2ccc3ccccc3c2)c2nc3ccccc3s2)CC1 (stereo not drawn) (as salt: hydrochloride) [Example 18, 2-[(1-methylpiperidin-4-yloxy)naphthalen-2-ylmethyl]benzothiazole] | 198
CCCOc1cccc(C(OC2CCN(C)CC2)c2nc3ccccc3s2)c1 (stereo not drawn) (as salt: hydrochloride) [Example 26, 2-[(1-methylpiperidin-4-yloxy)(3-propoxy-phenyl)methyl]benzothiazole] | 59
CN1CCC(OC(c2cccc(C(F)(F)F)c2)c2nc3ccccc3s2)CC1 (stereo not drawn) (as salt: hydrochloride) [Example 31, 2-[(1-methylpiperidin-4-yloxy)(3-trifluoromethylphenyl)methyl]benzothiazole] | 61
CN1CCC(OC(c2cccc(CCCCCN)c2)c2nc3ccccc3s2)CC1 (stereo not drawn) (as salt: hydrochloride) [Example 289, 5-{3-[benzothiazol-2-yl(1-methylpiperidin-4-yloxy)methyl]phenyl}pentylamine] | 110
CN1CCC(OC(c2cccc(C#CCCCNC(=N)N)c2)c2nc3ccccc3s2)CC1 (stereo not drawn) (as salt: hydrochloride) [Example 340, N-(5-{3-[benzothiazol-2-yl(1-methylpiperidin-4-yloxy)methyl]phenyl}pent-4-ynyl)guanidine] | 180
CN1CCC(OC(c2cccc(CCCCCNC(=N)N)c2)c2nc3ccccc3s2)CC1 (stereo not drawn) (as salt: hydrochloride) [Example 365, N-(5-{3-[benzothiazol-2-yl(1-methylpiperidin-4-yloxy)methyl]phenyl}pentyl)guanidine] | 90
CN1CCC(OC(c2cccc(C#CCNC(=N)N)c2)c2nc3ccccc3s2)CC1 (stereo not drawn) (as salt: hydrochloride) [Example 373, N-(3-{3-[benzothiazol-2-yl(1-methylpiperidin-4-yloxy)methyl]phenyl}prop-2-ynyl)guanidine] | 125
CN1CCC(OC(c2cccc(CCCCNC(=N)N)c2)c2nc3ccccc3s2)CC1 (stereo not drawn) (as salt: hydrochloride) [Example 374, N-(4-{3-[benzothiazol-2-yl(1-methylpiperidin-4-yloxy)methyl]phenyl}butyl)guanidine] | 120
CN1CCC(OC(c2ccccc2)c2nc3ccccc3s2)C1 (stereo not drawn) (as salt: oxalate) [Example 2, 2-[(1-methylpyrrolidin-3-yloxy)phenyl-methyl]benzothiazole] | 120
CN1CCC(OC(c2ccc(F)cc2)c2nc3ccccc3s2)CC1 (stereo not drawn) (as salt: oxalate) [Example 3, 2-[(4-fluorophenyl)(1-methylpiperidin-4-yloxy)methyl]benzothiazole] | 192
CN1CCC(OC(c2cccc(F)c2)c2nc3ccccc3s2)CC1 (stereo not drawn) (as salt: oxalate) [Example 5] | 167 to 170
Cc1ccc(C(OC2CCN(C)CC2)c2nc3ccccc3s2)cc1 (stereo not drawn) (as salt: oxalate) [Example 7, 2-[(1-methylpiperidin-4-yloxy)-p-tolylmethyl]benzothiazole] | 177
Cc1ccc(C(OC2CCN(C)CC2)c2nc3ccccc3s2)s1 (stereo not drawn) (as salt: oxalate) [Example 19, 2-[(1-methylpiperidin-4-yloxy)(5-methylthiophen-2-yl)methyl]benzothiazole] | 174
CN1CCC(OC(c2ccc(OC(F)(F)F)cc2)c2nc3ccccc3s2)CC1 (stereo not drawn) (as salt: oxalate) [Example 24, 2-[(1-methylpiperidin-4-yloxy)(4-trifluoromethoxyphenyl)methyl]benzothiazole] | 155
COc1cccc(C(NC2CCN(C)CC2)c2nc3ccccc3s2)c1 (stereo not drawn) (as salt: oxalate) [Example 25, [benzothiazol-2-yl(3-methoxyphenyl)methyl](1-methylpiperidin-4-yl)amine] | 160
CN1CCC(OC(c2cccc(Oc3ccccc3)c2)c2nc3ccccc3s2)CC1 (stereo not drawn) (as salt: oxalate) [Example 28, 2-[(1-methylpiperidin-4-yloxy)(3-phenoxy-phenyl)methyl]benzothiazole] | 92
Cc1ccc2sc(C(OC3CCN(C)CC3)c3ccccc3)nc2c1 (stereo not drawn) (as salt: oxalate) [Example 29, 5-methyl-2-[(1-methylpiperidin-4-yloxy)phenylmethyl]benzothiazole] | 175
Cc1cc(C(OC2CCN(C)CC2)c2nc3ccccc3s2)ccc1F (stereo not drawn) (as salt: oxalate) [Example 34, 2-[(4-fluoro-3-methylphenyl)(1-methylpiperidin-4-yloxy)methyl]benzothiazole] | 120
Cc1cc(C(NC2CCN(C)CC2)c2nc3ccccc3s2)ccc1F (stereo not drawn) (as salt: oxalate) [Example 35, [benzothiazol-2-yl(4-fluoro-3-methyl-phenyl)methyl](1-methylpiperidin-4-yl)amine] | 160
CN1CCC(OC(c2cccc(I)c2)c2nc3ccccc3s2)CC1 (stereo not drawn) (as salt: oxalate) [Example 41, 2-[(3-iodophenyl)(1-methylpiperidin-4-yloxy)methyl]benzothiazole] | 165 to 170

Next, values leading:

melting point [°C] | Compound
71 | CN1CCC(OC(c2ccc3c(c2)OCCO3)c2nc3ccccc3s2)CC1 (stereo not drawn) (as salt: hydrochloride) [Example 10, 2-[(2,3-dihydrobenzo[1,4]dioxin-6-yl)(1-methylpiperidin-4-yloxy)methyl]benzothiazole]
110 | CN1CCC(OC(c2ccc3c(c2)OCO3)c2nc3ccccc3s2)CC1 (stereo not drawn) (as salt: hydrochloride) [Example 20, 2-[benzo[1,3]dioxol-5-yl(1-methylpiperidin-4-yloxy)methyl]benzothiazole]
125 | CN1CCC(OC(c2cccc(SCCNC(=N)N)c2)c2nc3ccccc3s2)CC1 (stereo not drawn) (as salt: hydrochloride) [Example 302, N-(2-{3-[benzothiazol-2-yl(1-methylpiperidin-4-yloxy)methyl]phenylsulfanyl}ethyl)guanidine]
185 | CN1CCC(OC(c2cccc(C#CCCCCNC(=N)N)c2)c2nc3ccccc3s2)CC1 (stereo not drawn) (as salt: hydrochloride) [Example 342, N-(6-{3-[benzothiazol-2-yl(1-methylpiperidin-4-yloxy)methyl]phenyl}hex-5-ynyl)guanidine]
90 | CN1CCC(OC(c2cccc(CCCCCCNC(=N)N)c2)c2nc3ccccc3s2)CC1 (stereo not drawn) (as salt: hydrochloride) [Example 363, N-(6-{3-[benzothiazol-2-yl(1-methylpiperidin-4-yloxy)methyl]phenyl}hexyl)guanidine]
185 | CN1CCC(OC(c2ccc(N)cc2)c2nc3ccccc3[nH]2)CC1 (stereo not drawn) (as salt: hydrochloride) [Example 455, 4-[(1H-benzimidazol-2-yl)(1-methylpiperidin-4-yloxy)methyl]aniline]
147 to 148 | CN1CCC(OC(c2ccc(Cl)cc2)c2nc3ccccc3s2)CC1 (stereo not drawn) (as salt: oxalate) [Example 4, 2-[(4-chlorophenyl)(1-methylpiperidin-4-yloxy)methyl]benzothiazole]
178 to 179 | CN1CCC(OC(c2nc3ccccc3s2)c2ccccc2F)CC1 (stereo not drawn) (as salt: oxalate) [Example 6, 2-[(2-fluorophenyl)(1-methylpiperidin-4-yloxy)methyl]benzothiazole]
177 | Cc1cccc(C(OC2CCN(C)CC2)c2nc3ccccc3s2)c1 (stereo not drawn) (as salt: oxalate) [Example 8, 2-[(1-methylpiperidin-4-yloxy)(m-tolyl)methyl]benzothiazole]
182 | CN1CCC(OC(c2nc3ccccc3s2)c2ccc(F)cc2F)CC1 (stereo not drawn) (as salt: oxalate) [Example 12, 2-[(2,4-difluorophenyl)(1-methyl-piperidin-4-yloxy)methyl]-benzothiazole]
165 | CN1CCC(OC(c2cc(F)cc(F)c2)c2nc3ccccc3s2)CC1 (stereo not drawn) (as salt: oxalate) [Example 15, 2-[(3,5-difluorophenyl)(1-methyl-piperidin-4-yloxy)methyl]benzothiazole]
127 | Cc1cccc(C(NC2CCN(C)CC2)c2nc3ccccc3s2)c1 (stereo not drawn) (as salt: oxalate) [Example 21, [(benzothiazol-2-yl)(m-tolyl)methyl](1-methylpiperidin-4-yl)amine]
110 | Cc1ccc(C(NC2CCN(C)CC2)c2nc3ccccc3s2)cc1 (stereo not drawn) (as salt: oxalate) [Example 36, (benzothiazol-2-yl-p-tolylmethyl)(1-methylpiperidin-4-yl)amine]
125 | CN1CCC(NC(c2cc3ccccc3o2)c2nc3ccccc3s2)CC1 (stereo not drawn) (as salt: oxalate) [Example 37, [(benzofuran-2-yl)(benzothiazol-2-yl)methyl](1-methylpiperidin-4-yl)amine]
170 | Cc1cc(F)cc(C(OC2CCN(C)CC2)c2nc3ccccc3s2)c1 (stereo not drawn) (as salt: oxalate) [Example 38, 2-[(3-fluoro-5-methylphenyl)(1-methylpiperidin-4-yloxy)methyl]benzothiazole]
145 | COc1cc(F)cc(C(OC2CCN(C)CC2)c2nc3ccccc3s2)c1 (stereo not drawn) (as salt: oxalate) [Example 40, 2-[(3-fluoro-5-methoxyphenyl)(1-methylpiperidin-4-yloxy)methyl]benzothiazole]

Target: T1, human H4 receptor (Homo sapiens, UniProt Q9H3N8)
T1 construct: expressed in transfected cells
Assay: [3H]Histamine binding on membranes of CHO cells stably expressing human H4 receptor
Procedure, shortened: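 Filter-bound counts (liquid scintillation) gave H4 binding. Incubation used 20 μg membrane protein/well in Tris/HCl 50 mM plus EDTA 0.5 mM at pH 7.4, and 10 μM JNJ 7777120 set nonspecific binding. Filtration on GF/B pretreated with polyethyleneimine stopped the reaction.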

Ki or IC50 activity class [nM] | Compound
< 1000 | CN1CCC(OC(c2ccc(O)cc2)c2nc3ccccc3[nH]2)CC1 (stereo not drawn) [Example 597]
